Reference: the OPERA property sets (Mansouri et al. 2018)

Settings: for log10 biotransformation half-life (days) / log10 BCF: fish

| Compound | boiling point | melting point | further results |
| --- | --- | --- | --- |
| CSCSC | 148 °C | – | – |
| O=C(NO)c1ccccc1 | – | 128 °C | – |
| Brc1ccc(Oc2ccc(Br)c(Br)c2Br)c(Br)c1 | – | – | log10 Koa: 11.7; log10 vapour pressure (mmHg): -8.14; logP: 7.37; log10 biotransformation half-life (days): 1.34 |
| Cc1cccc(OC(N)=O)c1 | – | – | log10 Koc (L/kg): 1.48 |
| C=C(C)CCC(C)=O | 150 °C | – | – |
| CC(C)C(C)CCC(C)C1CCC2=C3CCC4CC(O)CCC4(C)C3CCC21C (stereo not given) | – | 131 °C | – |
| CCC(C)OC(C)CC (stereo not given) | – | -100 °C | log10 vapour pressure (mmHg): 1.21 |
| CC(C)(C)c1cccc([N+](=O)[O-])c1 | 254 °C | 2 °C | – |
| CCCCCCCCCCCCCCCCCCCCCCCCCCCC(=O)O | – | 90.9 °C | – |
| CCCCCCCCCCCCCc1ccccc1 | 346 °C | 10 °C | log10 vapour pressure (mmHg): -4.9 |
| NN1CCOCC1 | 166 °C | – | – |
| ClC1=C(Cl)C2(Cl)C3C(Cl)C(Cl)C(Cl)C3C1(Cl)C2(Cl)Cl (stereo not given) | – | – | log10 Koa: 9.43; log10 vapour pressure (mmHg): -6.02 |
| CC(=O)NCc1c(I)c(NC(C)=O)c(I)c(C(=O)O)c1I | – | 255 °C | – |
| C/C=C/C=C/C(=O)O | – | – | ready biodegradability: readily biodegradable |
| O=Cc1cccc(Oc2ccccc2)c1 | – | – | ready biodegradability: not readily biodegradable |
| Brc1ccc(Oc2ccc(Br)cc2Br)cc1 | – | – | log10 Koa: 9.5; log10 vapour pressure (mmHg): -6.17; logP: 5.94; log10 BCF: 5.83; log10 biotransformation half-life (days): 1.25 |
| CCOC(=O)C(Cl)Cc1cc(-n2nc(C)n(C(F)F)c2=O)c(F)cc1Cl (stereo not given) | 352 °C | -22.1 °C | log10 vapour pressure (mmHg): -6.92 |
| CO[C@@H]1C=C[C@@]23c4cc5c(cc4CO[C@]2(O)CN(C)[C@H]3C1)OCO5 | – | 210 °C | – |
| OCc1ccc(Cl)cc1Cl | – | 59.5 °C | ready biodegradability: readily biodegradable |
| O=S(=O)(Cl)c1ccc(I)cc1 | – | 85 °C | – |
| CCC=CBr | 99 °C | – | log10 vapour pressure (mmHg): 1.89 |
| O=C(O)CN(CCO)CC(=O)O | – | 178 °C | – |
| c1ccnnc1 | 208 °C | -8 °C | – |
| C=C(C(=O)O)c1ccccc1 | – | 106 °C | ready biodegradability: readily biodegradable |
| COc1ccc2c(c1OC)C(=O)OC2 | – | 102 °C | – |
| CCOCCOC(C)=O | 156 °C | -61.7 °C | log10 Henry constant (atm·m³/mol): -5.49; log10 vapour pressure (mmHg): 0.369; ready biodegradability: readily biodegradable |

| Compound | boiling point | melting point | further results |
| --- | --- | --- | --- |
| C=C(C)OC(C)=O | 97 °C | -92.9 °C | – |
| OC[C@@H]1CCCCN1 | – | 69 °C | – |
| O=C(O)Cn1c(=O)sc2cccc(Cl)c21 | – | 193 °C | log10 Koc (L/kg): 1.52; log10 vapour pressure (mmHg): -9.12 |
| COCC(C)C | 58.6 °C | – | log10 vapour pressure (mmHg): 2.32 |
| CCCCOC(=O)Nc1ccccc1 | – | – | log10 Koc (L/kg): 2.26 |
| Cn1c(=O)c2c(ncn2CC(O)CO)n(C)c1=O (stereo not given) | – | 162 °C | – |
| O=C(O)c1cc(Cl)cc(Cl)c1Cl | – | 166 °C | log10 vapour pressure (mmHg): -3.51 |
| O=C1OC(=O)C(F)(F)C1(F)F | 54.5 °C | – | – |
| CC(C)CCCCCCCCCCCO | – | 10.5 °C | – |
| CC1=CC(=O)[C@H]2C[C@@H]1C2(C)C | 228 °C | – | – |
| CC1=CC[C@@H](C(C)C)CC1 | 174 °C | – | – |
| O=[N+]([O-])c1cc(Cl)c(Cl)cc1Cl | 288 °C | 57.5 °C | log10 BCF: 1.84; log10 biotransformation half-life (days): -0.64 |
| Clc1ccc(-c2c(Cl)cc(Cl)c(Cl)c2Cl)cc1 | – | – | log10 biotransformation half-life (days): 1.84 |
| CCC=CC(C)=O | 140 °C | – | – |
| CC(C)Sc1ccccc1 | 208 °C | – | – |
| CCOC(=O)C=[N+]=[N-] | – | -22 °C | log10 vapour pressure (mmHg): 0.447 |
| O=C(CCl)c1cccc([N+](=O)[O-])c1 | – | – | log10 vapour pressure (mmHg): -5.06 |
| COC(=O)C=C(C)C | 136 °C | – | – |
| CCN(CC)CCOC(=O)c1ccc(N)cc1 | – | 61 °C | – |
| CCCCC(CC)COC(=O)CCCCCCCC(=O)OCC(CC)CCCC (stereo not given) | – | -78 °C | ready biodegradability: readily biodegradable |
| CCCCCCCCCCCCNC(=N)N | – | 136 °C | – |
| CCCCCCCCCCCCCCCCC(=O)OCC | – | 28 °C | – |
| NC1CCCCCCC1 | 190 °C | -48 °C | – |
| c1ccc2c(c1)Cc1ccccc1O2 | 311 °C | 100 °C | – |
| CCCCN(CCCC)C(C(N)=O)c1ccc(OC)cc1 (stereo not given) | – | 134 °C | – |
